Measured values: publication PMC11277489, “Novel Piperazine Derivatives of Vindoline as Anticancer Agents” (International Journal of Molecular Sciences, 2024)

What was measured:
Type in all cases: cell-based
K-562 = assay: NCI60 five-dose screen, Leukemia; conditions: Homo sapiens, K562; K-562, Leukemia; five-dose screen; read-out: GI50
RPMI-8226 = assay: NCI60 five-dose screen, Leukemia; conditions: Homo sapiens; RPMI-8226, Leukemia; five-dose screen; read-out: GI50
SR = assay: NCI60 five-dose screen, Leukemia; conditions: Homo sapiens, Leukemia, five-dose screen, read-out: GI50
EKVX = assay: NCI60 five-dose screen, Non-small Cell Lung Cancer; conditions: Homo sapiens, Non-small Cell Lung Cancer, five-dose screen, read-out: GI50
NCI-H226 = assay: NCI60 five-dose screen, Non-small Cell Lung Cancer; conditions: Homo sapiens; NCI-H226, Non-small Cell Lung Cancer; five-dose screen; read-out: GI50
NCI-H522 = assay: NCI60 five-dose screen, Non-small Cell Lung Cancer; conditions: Homo sapiens; NCI-H522, Non-small Cell Lung Cancer; five-dose screen; read-out: GI50
COLO 205 = assay: NCI60 five-dose screen, Colon Cancer; conditions: Homo sapiens; COLO 205, Colon Cancer; five-dose screen; read-out: GI50
HCT-116 = assay: NCI60 five-dose screen, Colon Cancer; conditions: Homo sapiens; HCT-116, Colon Cancer; five-dose screen; read-out: GI50
HCT-15 = assay: NCI60 five-dose screen, Colon Cancer; conditions: Homo sapiens; HCT-15, Colon Cancer; five-dose screen; read-out: GI50
HT29 = assay: NCI60 five-dose screen, Colon Cancer; conditions: Homo sapiens, HT-29; HT29, Colon Cancer; five-dose screen; read-out: GI50
KM12 = assay: NCI60 five-dose screen, Colon Cancer; conditions: Homo sapiens; KM12, Colon Cancer; five-dose screen; read-out: GI50
SF-268 = assay: NCI60 five-dose screen, CNS Cancer; conditions: Homo sapiens; SF-268, CNS Cancer; five-dose screen; read-out: GI50
SF-295 = assay: NCI60 five-dose screen, CNS Cancer; conditions: Homo sapiens; SF-295, CNS Cancer; five-dose screen; read-out: GI50
SF-539 = assay: NCI60 five-dose screen, CNS Cancer; conditions: Homo sapiens; SF-539, CNS Cancer; five-dose screen; read-out: GI50
SNB-19 = assay: NCI60 five-dose screen, CNS Cancer; conditions: Homo sapiens; SNB-19, CNS Cancer; five-dose screen; read-out: GI50
SNB-75 = assay: NCI60 five-dose screen, CNS Cancer; conditions: Homo sapiens; SNB-75, CNS Cancer; five-dose screen; read-out: GI50
U251 = assay: NCI60 five-dose screen, CNS Cancer; conditions: Homo sapiens, U-251; U251, CNS Cancer; five-dose screen; read-out: GI50
LOX IMVI = assay: NCI60 five-dose screen, Melanoma; conditions: Homo sapiens, Melanoma, five-dose screen, read-out: GI50
MDA-MB-435 = assay: NCI60 five-dose screen, Melanoma; conditions: Homo sapiens; MDA-MB-435, Melanoma; five-dose screen; read-out: GI50
SK-MEL-2 = assay: NCI60 five-dose screen, Melanoma; conditions: Homo sapiens; SK-MEL-2, Melanoma; five-dose screen; read-out: GI50
SK-MEL-28 = assay: NCI60 five-dose screen, Melanoma; conditions: Homo sapiens; SK-MEL-28, Melanoma; five-dose screen; read-out: GI50
IGROV1 = assay: NCI60 five-dose screen, Ovarian Cancer; conditions: Homo sapiens, IGROV-1; IGROV1, Ovarian Cancer; five-dose screen; read-out: GI50
OVCAR-3 = assay: NCI60 five-dose screen, Ovarian Cancer; conditions: Homo sapiens; OVCAR-3, Ovarian Cancer; five-dose screen; read-out: GI50
OVCAR-8 = assay: NCI60 five-dose screen, Ovarian Cancer; conditions: Homo sapiens; OVCAR-8, Ovarian Cancer; five-dose screen; read-out: GI50
SK-OV-3 = assay: NCI60 five-dose screen, Ovarian Cancer; conditions: Homo sapiens; SK-OV-3, Ovarian Cancer; five-dose screen; read-out: GI50
786–0 = assay: NCI60 five-dose screen, Renal Cancer; conditions: Homo sapiens; 786–0, Renal Cancer; five-dose screen; read-out: GI50
A498 = assay: NCI60 five-dose screen, Renal Cancer; conditions: Homo sapiens; A498, Renal Cancer; five-dose screen; read-out: GI50
RXF 393 = assay: NCI60 five-dose screen, Renal Cancer; conditions: Homo sapiens, RXF 393, Renal Cancer
SN12C = assay: NCI60 five-dose screen, Renal Cancer; conditions: Homo sapiens, Renal Cancer, five-dose screen, read-out: GI50
TK-10 = assay: NCI60 five-dose screen, Renal Cancer; conditions: Homo sapiens; TK-10, Renal Cancer; five-dose screen; read-out: GI50
UO-31 = assay: NCI60 five-dose screen, Renal Cancer; conditions: Homo sapiens; UO-31, Renal Cancer; five-dose screen; read-out: GI50
PC-3 = assay: NCI60 five-dose screen, Prostate Cancer; conditions: Homo sapiens; PC-3, Prostate Cancer; five-dose screen; read-out: GI50
DU-145 = assay: NCI60 five-dose screen, Prostate Cancer; conditions: Homo sapiens; DU-145, Prostate Cancer; five-dose screen; read-out: GI50
HS 578T = assay: NCI60 five-dose screen, Breast Cancer; conditions: Homo sapiens; HS 578T, Breast Cancer; five-dose screen; read-out: GI50
BT-549 = assay: NCI60 five-dose screen, Breast Cancer; conditions: Homo sapiens; BT-549, Breast Cancer; five-dose screen; read-out: GI50
T-47D = assay: NCI60 five-dose screen, Breast Cancer; conditions: Homo sapiens, T47D; T-47D, Breast Cancer; five-dose screen; read-out: GI50
MDA-MB-468 = assay: NCI60 five-dose screen, Breast Cancer; conditions: Homo sapiens; MDA-MB-468, Breast Cancer; five-dose screen; read-out: GI50

SMILES | GI50 (K-562) [nM] | GI50 (RPMI-8226) [nM] | GI50 (SR) [nM] | GI50 (EKVX) [µM] | GI50 (NCI-H226) [µM] | GI50 (NCI-H522) [µM] | GI50 (COLO 205) [nM] | GI50 (HCT-116) [nM] | GI50 (HCT-15) [nM] | GI50 (HT29) [nM] | GI50 (KM12) [nM] | GI50 (SF-268) [nM] | GI50 (SF-295) [nM] | GI50 (SF-539) [µM] | GI50 (SNB-19) [µM] | GI50 (SNB-75) [nM] | GI50 (U251) [µM] | GI50 (LOX IMVI) [µM] | GI50 (MDA-MB-435) [nM] | GI50 (SK-MEL-2) [µM] | further results
CCC12C=CCN3CCC4(c5cc(NC(=O)CN6CCN(c7ccc(C(F)(F)F)cc7)CC6)c(OC)cc5N(C)C4C(O)(C(=O)OC)C1OC(C)=O)C32 (centres unmarked) [Compound 17] | 3020 | 3090 | 2950 | 6.03 | 6.46 | 10.5 | 3240 | 3720 | 3890 | 2090 | 3720 | 3020 | 3550 | 4.68 | 5.37 | 1450 | 6.03 | 4.27 | 1950 | 4.37 | GI50 (SK-MEL-28): 5.89 µM; GI50 (IGROV1): 10 µM; GI50 (OVCAR-3): 2880 nM; GI50 (OVCAR-8): 8.51 µM; GI50 (SK-OV-3): 3310 nM; GI50 (786–0): 6.31 µM; GI50 (A498): 10.7 µM; GI50 (RXF 393): 5.37 µM; GI50 (SN12C): 7.76 µM; GI50 (TK-10): 4.57 µM; GI50 (UO-31): 5.13 µM; GI50 (PC-3): 3310 nM; GI50 (DU-145): 6.46 µM; GI50 (HS 578T): 14.8 µM; GI50 (BT-549): 2340 nM; GI50 (T-47D): 2190 nM; GI50 (MDA-MB-468): 2400 nM
CC[C@]12C=CCN3CC[C@@]4(c5ccc(OC)cc5N(C)[C@H]4[C@@](O)(C(=O)OC)[C@@H]1OC(=O)CCCN1CCN(Cc4ccc(C(F)(F)F)cc4)CC1)[C@@H]32 [Compound 23] | 1700 | 2000 | 1660 | 1.7 | 2.04 | 1.7 | 1580 | 1700 | 1740 | 1660 | 1740 | 1350 | 1780 | 1.58 | 1.58 | 1450 | 1.66 | 1.78 | 1480 | 1.78 | GI50 (SK-MEL-28): 1.62 µM; GI50 (IGROV1): 1.78 µM; GI50 (OVCAR-3): 1550 nM; GI50 (OVCAR-8): 1.82 µM; GI50 (SK-OV-3): 2000 nM; GI50 (786–0): 1.48 µM; GI50 (A498): 1.62 µM; GI50 (RXF 393): 1.35 µM; GI50 (SN12C): 2.09 µM; GI50 (TK-10): 1.66 µM; GI50 (UO-31): 1.58 µM; GI50 (PC-3): 1580 nM; GI50 (DU-145): 1.58 µM; GI50 (HS 578T): 1.51 µM; GI50 (BT-549): 1660 nM; GI50 (T-47D): 1740 nM; GI50 (MDA-MB-468): 1000 nM
